This data set deals with CCRIS mutagenicity, Ames/micronucleus/aberration tests. The data set is described as follows: CCRIS mutagenicity studies.
Setting [1] is: Test System: AMES SALMONELLA TYPHIMURIUM, Strain/Indicator: TA98, Metabolic Activation: NONE, Method: STANDARD PLATE.
Where [2] appears, read: Test System: AMES SALMONELLA TYPHIMURIUM, Strain/Indicator: TA100, Metabolic Activation: NONE, Method: STANDARD PLATE.

Structures are written as SMILES. Activity calls are given as the source filed them. How the calls were made is not given here.

`C=CC(=O)OC`: the mutagenic call by setting is: (Test System: AMES SALMONELLA TYPHIMURIUM, Strain/Indicator: TA97, Metabolic Activation: HAMSTER, LIVER, S-9, AROCLOR 1254 (10%), Method: PREINCUBATION) “inactive; negative”; (Test System: AMES SALMONELLA TYPHIMURIUM, Strain/Indicator: TA97, Metabolic Activation: HAMSTER, LIVER, S-9, AROCLOR 1254 (30%), Method: PREINCUBATION) “inactive; negative”; (Test System: AMES SALMONELLA TYPHIMURIUM, Strain/Indicator: TA97, Metabolic Activation: NONE, Method: PREINCUBATION) “inactive; negative”; (Test System: AMES SALMONELLA TYPHIMURIUM, Strain/Indicator: TA97, Metabolic Activation: RAT, LIVER, S-9, AROCLOR 1254 (10 OR 30%), Method: PREINCUBATION) “inactive; negative”; (Test System: AMES SALMONELLA TYPHIMURIUM, Strain/Indicator: TA98, Metabolic Activation: HAMSTER, LIVER, S-9, AROCLOR 1254 (10%), Method: PREINCUBATION) “inactive; negative”; (Test System: AMES SALMONELLA TYPHIMURIUM, Strain/Indicator: TA98, Metabolic Activation: HAMSTER, LIVER, S-9, AROCLOR 1254 (30%), Method: PREINCUBATION) “inactive; negative”. Further, the mutagenic call reads like this: (Test System: AMES SALMONELLA TYPHIMURIUM, Strain/Indicator: TA98, Metabolic Activation: NONE, Method: PREINCUBATION) “inactive; negative”; under setting [1], “inactive; negative”; (Test System: AMES SALMONELLA TYPHIMURIUM, Strain/Indicator: TA98, Metabolic Activation: RAT, LIVER, S-9, AROCLOR 1254 (10%), Method: PREINCUBATION) “inactive; negative”; (Test System: AMES SALMONELLA TYPHIMURIUM, Strain/Indicator: TA98, Metabolic Activation: RAT, LIVER, S-9, AROCLOR 1254 (30%), Method: PREINCUBATION) “inactive; negative”; (Test System: AMES SALMONELLA TYPHIMURIUM, Strain/Indicator: TA98, Metabolic Activation: RAT, LIVER, S-9, AROCLOR 1254, Method: STANDARD PLATE) “inactive; negative”; (Test System: AMES SALMONELLA TYPHIMURIUM, Strain/Indicator: TA98, Metabolic Activation: RAT, LIVER, S-9, SODIUM PHENOBARBITAL, Method: STANDARD PLATE) “inactive; negative”. The mutagenic call reads like this: (Test System: AMES SALMONELLA TYPHIMURIUM, Strain/Indicator: TA100, Metabolic Activation: HAMSTER, LIVER, S-9, AROCLOR 1254 (10%), Method: PREINCUBATION) “inactive; negative”; (Test System: AMES SALMONELLA TYPHIMURIUM, Strain/Indicator: TA100, Metabolic Activation: HAMSTER, LIVER, S-9, AROCLOR 1254 (30%), Method: PREINCUBATION) “inactive; negative”; (Test System: AMES SALMONELLA TYPHIMURIUM, Strain/Indicator: TA100, Metabolic Activation: NONE, Method: PREINCUBATION) “inactive; negative”; under setting [2], “inactive; negative”; (Test System: AMES SALMONELLA TYPHIMURIUM, Strain/Indicator: TA100, Metabolic Activation: RAT, LIVER, S-9, AROCLOR 1254 (10 OR 30%), Method: PREINCUBATION) “inactive; negative”; (Test System: AMES SALMONELLA TYPHIMURIUM, Strain/Indicator: TA100, Metabolic Activation: RAT, LIVER, S-9, AROCLOR 1254, Method: PREINCUBATION) “inactive; negative”. Further, the mutagenic call reads like this: (Test System: AMES SALMONELLA TYPHIMURIUM, Strain/Indicator: TA100, Metabolic Activation: RAT, LIVER, S-9, AROCLOR 1254, Method: STANDARD PLATE) “inactive; negative”; (Test System: AMES SALMONELLA TYPHIMURIUM, Strain/Indicator: TA100, Metabolic Activation: RAT, LIVER, S-9, SODIUM PHENOBARBITAL, Method: STANDARD PLATE) “inactive; negative”; (Test System: AMES SALMONELLA TYPHIMURIUM, Strain/Indicator: TA1535, Metabolic Activation: HAMSTER, LIVER, S-9, AROCLOR 1254 (10%), Method: PREINCUBATION) “inactive; negative”; (Test System: AMES SALMONELLA TYPHIMURIUM, Strain/Indicator: TA1535, Metabolic Activation: HAMSTER, LIVER, S-9, AROCLOR 1254 (30%), Method: PREINCUBATION) “inactive; negative”; (Test System: AMES SALMONELLA TYPHIMURIUM, Strain/Indicator: TA1535, Metabolic Activation: NONE, Method: PREINCUBATION) “inactive; negative”; (Test System: AMES SALMONELLA TYPHIMURIUM, Strain/Indicator: TA1535, Metabolic Activation: NONE, Method: STANDARD PLATE) “inactive; negative”. Further, the mutagenic call is “inactive; negative” (Test System: AMES SALMONELLA TYPHIMURIUM, Strain/Indicator: TA1535, Metabolic Activation: RAT, LIVER, S-9, AROCLOR 1254 (10%), Method: PREINCUBATION); “inactive; negative” (Test System: AMES SALMONELLA TYPHIMURIUM, Strain/Indicator: TA1535, Metabolic Activation: RAT, LIVER, S-9, AROCLOR 1254 (30%), Method: PREINCUBATION); “inactive; negative” (Test System: AMES SALMONELLA TYPHIMURIUM, Strain/Indicator: TA1535, Metabolic Activation: RAT, LIVER, S-9, AROCLOR 1254, Method: STANDARD PLATE); “inactive; negative” (Test System: AMES SALMONELLA TYPHIMURIUM, Strain/Indicator: TA1535, Metabolic Activation: RAT, LIVER, S-9, SODIUM PHENOBARBITAL, Method: STANDARD PLATE); “inactive; negative” (Test System: AMES SALMONELLA TYPHIMURIUM, Strain/Indicator: TA1537, Metabolic Activation: HAMSTER, LIVER, S-9, AROCLOR 1254 (10%), Method: PREINCUBATION); “inactive; negative” (Test System: AMES SALMONELLA TYPHIMURIUM, Strain/Indicator: TA1537, Metabolic Activation: NONE, Method: PREINCUBATION). Further, the mutagenic call runs as follows: (Test System: AMES SALMONELLA TYPHIMURIUM, Strain/Indicator: TA1537, Metabolic Activation: NONE, Method: STANDARD PLATE) “inactive; negative”; (Test System: AMES SALMONELLA TYPHIMURIUM, Strain/Indicator: TA1537, Metabolic Activation: RAT, LIVER, S-9, AROCLOR 1254 (10%), Method: PREINCUBATION) “inactive; negative”; (Test System: AMES SALMONELLA TYPHIMURIUM, Strain/Indicator: TA1537, Metabolic Activation: RAT, LIVER, S-9, AROCLOR 1254, Method: STANDARD PLATE) “inactive; negative”; (Test System: AMES SALMONELLA TYPHIMURIUM, Strain/Indicator: TA1537, Metabolic Activation: RAT, LIVER, S-9, SODIUM PHENOBARBITAL, Method: STANDARD PLATE) “inactive; negative”; (Test System: AMES SALMONELLA TYPHIMURIUM, Strain/Indicator: TA1538, Metabolic Activation: NONE, Method: STANDARD PLATE) “inactive; negative”; (Test System: AMES SALMONELLA TYPHIMURIUM, Strain/Indicator: TA1538, Metabolic Activation: RAT, LIVER, S-9, AROCLOR 1254, Method: STANDARD PLATE) “inactive; negative”. In addition, the mutagenic call was “inactive; negative” (Test System: AMES SALMONELLA TYPHIMURIUM, Strain/Indicator: TA1538, Metabolic Activation: RAT, LIVER, S-9, SODIUM PHENOBARBITAL, Method: STANDARD PLATE); “active; positive” (Test System: CHINESE HAMSTER OVARY, Strain/Indicator: CHO-K1-BH4 (HGPRT)/6-THIOGUANINE, Metabolic Activation: NONE, Method: SUSPENSION/PLATE); “active; positive” (Test System: CHINESE HAMSTER OVARY, Strain/Indicator: CHO-K1-BH4 (HGPRT), Metabolic Activation: NONE, Method: SUSPENSION/PLATE); “active; positive. reevaluation of results: positive” (Test System: MOUSE LYMPHOMA, Strain/Indicator: L5178Y (TK+/TK-), Metabolic Activation: RAT, LIVER, S-9, AROCLOR 1254, Method: SUSPENSION/PLATE).

In the case of `N#Cc1ccc(/C=C\c2ccc([N+](=O)[O-])cc2)cc1`, the mutagenic call is “active; positive” (Test System: AMES SALMONELLA TYPHIMURIUM, Strain/Indicator: TA98 (NR), Metabolic Activation: NONE, Method: STANDARD PLATE); “active; positive” (Test System: AMES SALMONELLA TYPHIMURIUM, Strain/Indicator: TA98 (NR), Metabolic Activation: S-9, Method: STANDARD PLATE); “active; positive” under setting [1]; “active; positive” (Test System: AMES SALMONELLA TYPHIMURIUM, Strain/Indicator: TA98, Metabolic Activation: S-9, Method: STANDARD PLATE); “inactive; negative” (Test System: AMES SALMONELLA TYPHIMURIUM, Strain/Indicator: TA100 (NR), Metabolic Activation: NONE, Method: STANDARD PLATE); “inactive; negative” (Test System: AMES SALMONELLA TYPHIMURIUM, Strain/Indicator: TA100 (NR), Metabolic Activation: S-9, Method: STANDARD PLATE). Also, the mutagenic call under setting [2] was “active; positive” and the mutagenic call (Test System: AMES SALMONELLA TYPHIMURIUM, Strain/Indicator: TA100, Metabolic Activation: S-9, Method: STANDARD PLATE) was “active; positive”.
